Measurements as given in patent publication US9822115B2, “Nitrogen containing compounds and their use as antibacterial agents” (WOCKHARDT LIMITED, priority 2014, dated 2017).
In brackets after ≈: the same amount, converted by molar mass.

Tests used:
[1] = tested on: T1, Class C beta-lactamase, E. coli M50 (CMY/DHA); format: biochemical; settings: read-out: Beta-lactamase enzyme inhibition IC50
T1 construct: no borders, tags or purification printed
Summary of the method: (§1)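 Crude enzyme preincubated with inhibitor 10 min at 37 °C, then nitrocefin (100 uM) added for 5 min. Absorbance read at 485 nm; IC50 obtained from sigmoidal dose-response fit of absorbance versus concentration.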

[2] = tested on: K. pneomoniae S48 (NDM, SHV, TEM); experiment: Antibacterial activity, MIC by agar dilution (CLSI); format: cell-based, K. pneumoniae; settings: Klebsiella pneumoniae; Table 2; K. pneomoniae S48 (NDM, SHV, TEM); read-out: MIC
Summary of the method: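 Agar dilution per CLSI on Mueller Hinton agar with doubling compound dilutions, about 10^4 CFU/spot by multipoint inoculator. Plates incubated 16-20 h at 35±2° C in ambient air; procedure also gives 37° C for 18 h. MIC (mcg/ml) scored as growth or no growth.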

[3] = target: T2, Class A beta-lactamase, K. pneumoniae ATCC 700603 (SHV 18) (Klebsiella pneumoniae, UniProt P0AD64, E235K/G234A/R39S); experiment: biochemical
T2 construct: preincubated mixture of crude enzyme and the agents; endogenous in cells; host or cells: K. pneumoniae ATCC 700603
Summary of the method: as §1

[4] = target: T3, Class D beta-lactamase, A. baumannii NCTC 13301 (OXA 23) (Acinetobacter baumannii, UniProt Q9L4P2); experiment: Beta-lactamase enzyme inhibition (nitrocefin, crude enzyme); format: biochemical; settings: Class D A. baumannii NCTC 13301 (OXA 23); read-out: Beta-lactamase enzyme inhibition IC50
T3 construct: preincubated mixture of crude enzyme and the agents; endogenous in cells; host or cells: A. baumannii NCTC 13301
Summary of the method: as §1

T3 sequence (Q9L4P2 18-273): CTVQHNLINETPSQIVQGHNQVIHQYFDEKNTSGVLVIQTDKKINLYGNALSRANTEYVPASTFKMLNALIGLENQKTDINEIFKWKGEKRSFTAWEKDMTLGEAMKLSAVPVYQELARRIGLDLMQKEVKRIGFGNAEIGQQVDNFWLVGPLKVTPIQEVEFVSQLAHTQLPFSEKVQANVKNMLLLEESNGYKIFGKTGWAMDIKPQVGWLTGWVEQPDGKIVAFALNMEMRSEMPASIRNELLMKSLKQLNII
T2 sequence (P0AD64 22-286 R39S/G234A/E235K): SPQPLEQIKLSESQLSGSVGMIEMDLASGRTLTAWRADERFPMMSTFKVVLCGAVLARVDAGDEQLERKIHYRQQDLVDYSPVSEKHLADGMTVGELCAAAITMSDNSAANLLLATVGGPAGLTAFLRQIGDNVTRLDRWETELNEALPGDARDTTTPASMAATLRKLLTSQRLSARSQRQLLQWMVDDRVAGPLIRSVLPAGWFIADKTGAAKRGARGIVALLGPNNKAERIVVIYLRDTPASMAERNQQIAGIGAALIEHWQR

Structure (SMILES)	IC50 [1]	MIC [2]	IC50 [3]	IC50 [4]
O=C(Cc1ccc(O)cc1)NNC(=O)[C@@H]1CC[C@@H]2CN1C(=O)N2OS(=O)(=O)[O-].[Na+] [Example 1, Sodium Salt of (2S,5R)-Sulfuric Acid mono-[2-(N′-(4-hydroxyphenyl-acetyl)-hydrazinocarbonyl)-7-oxo-1,6-diaza-bicyclo[3.2.1]oct-6-yl]ester]	5 nM	0.5 µg/mL	103 nM	315 nM
NCCOc1ccccc1CC(=O)NNC(=O)[C@@H]1CC[C@@H]2CN1C(=O)N2OS(=O)(=O)O [Example 2, (2S,5R)-Sulfuric Acid mono-[2-(N′-{2-[2-(2-amino-ethoxy)-phenyl]-acetyl}-hydrazinocarbonyl)-7-oxo-1,6-diaza-bicyclo[3.2.1]oct-6-yl]ester]	122 nM	1 µg/mL (≈ 2.19 µM)	119 nM	3770 nM
